Broadly, the IC50 is the concentration at which inhibition is half-maximal.

The target in the assay is Beta-3 Adrenergic Receptor (Homo sapiens (Human), UniProt P13945). The assay can be described thus: HTRF cAMP antagonist assay (IC50 determination). Particulars: CHO-K1 cells stably expressing recombinant receptor; antagonism of isoproterenol at EC90; cAMP readout. It is filed as cell-based. The procedure:
HTRF cAMP assays were performed according to manufacturer's instructions (Cisbio, cAMP Dynamic 2 Assay Kit; #62AM4PEJ). CHO-K1 cells stably expressing recombinant receptor were harvested and suspended in warm PBS to make a 300,000 cells/mL stock. This cell suspension was dispensed into 384 well assay plates (PerkinElmer ProxiPlate #6008280) at 5 μL per well (1500 cells/well) along with a cAMP standard curve.
Compounds were dissolved and serially diluted (5-fold) in DMSO to generate a 10-point dose response stock. The stock was then diluted 100-fold in assay buffer (PBS containing 1 mM IBMX) before a volume of 2.5 μL was added to the cells (the final, top concentration of compound in the dose-response is typically 10 or 100 μM). After a brief incubation, 2.5 μL of isoproterenol stock, prepared at a concentration 4 times its EC90 at the receptor of interest, was added to the wells. The EC90 for isoproterenol, a beta-adrenergic agonist, was determined in separate experiments using standard methods to measure agonist potencies.
Following a 1-hour incubation at room temperature, 5 μL of cAMP-D2 Reagent diluted in Lysis Buffer was added to each well followed by 5 μL of Cryptate Reagent. Plates were further incubated at room temperature for 1 hour prior to reading. Time resolved fluorescence measurements were collected on a suitable, HTRF-capable plate reader.
Counts from the plate reader were fit to the cAMP standard curve on the assay plate in order to determine cAMP concentrations in each well, and these values were used to construct dose-response curves to obtain IC50 values.
(In general: Time-resolved FRET reads energy transfer from a long-lived donor to a nearby acceptor.)

Chain of Beta-3 Adrenergic Receptor (P13945 whole entry, species assumed): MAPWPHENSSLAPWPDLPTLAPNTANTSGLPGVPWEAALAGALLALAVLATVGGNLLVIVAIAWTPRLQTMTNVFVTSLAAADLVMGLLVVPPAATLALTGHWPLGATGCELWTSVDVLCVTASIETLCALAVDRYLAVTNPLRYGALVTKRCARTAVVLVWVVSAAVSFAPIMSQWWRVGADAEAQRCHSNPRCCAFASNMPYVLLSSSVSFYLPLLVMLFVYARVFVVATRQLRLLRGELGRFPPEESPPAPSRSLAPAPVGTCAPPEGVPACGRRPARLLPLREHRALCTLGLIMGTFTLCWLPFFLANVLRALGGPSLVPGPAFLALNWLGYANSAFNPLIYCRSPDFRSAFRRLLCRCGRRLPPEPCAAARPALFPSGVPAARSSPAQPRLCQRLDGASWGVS

For the compound `CC(F)S(=O)(=O)c1cccc(OC[C@@H](O)CN[C@H]2COC3(CCN(S(=O)(=O)c4cnc5ccccc5c4)CC3)C2)c1` (stereo partly drawn) [Compound 233, (2S)-1-(3-(1-fluoroethylsulfonyl)phenoxy)-3-((R)-8-(quinolin-3-ylsulfonyl)-1-oxa-8-azaspiro[4.5]decan-3-ylamino)propan-2-ol], the IC50 came to 9.72 nM.
In the case of `CS(=O)(=O)Cc1cccc(OC[C@@H](O)CN[C@H]2COC3(CCN(S(=O)(=O)c4cnc5ccccc5c4)CC3)C2)c1` [Compound 95, (S)-1-(3-(methylsulfonylmethyl)phenoxy)-3-((R)-8-(quinolin-3-ylsulfonyl)-1-oxa-8-azaspiro[4.5]decan-3-ylamino)propan-2-ol], the IC50 is 21.1 nM.
In the case of `CS(=O)(=O)c1cccc(OC[C@@H](O)CNC2COC3(CCN(S(=O)(=O)c4ccc5c(c4)NC(=O)CO5)CC3)C2)c1` (stereo partly drawn) [Compound 53, 6-(3-((S)-2-hydroxy-3-(3-(methylsulfonyl)phenoxy)propylamino)-1-oxa-8-azaspiro[4.5]decan-8-ylsulfonyl)-2H-benzo[b][1,4]oxazin-3(4H)-one] it was 23.9 nM.
In the case of `Cc1c(Br)cccc1S(=O)(=O)N1CCC2(CC1)C[C@H](NC[C@H](O)COc1cccc(S(=O)(=O)C3(CO)CC3)c1)CO2` [Compound 200, (S)-1-((S)-8-(3-bromo-2-methylphenylsulfonyl)-1-oxa-8-azaspiro[4.5]decan-3-ylamino)-3-(3-(1-(hydroxymethyl)cyclopropylsulfonyl)phenoxy)propan-2-ol] it was 72.4 nM; in that of `Cc1ccc(-c2cccc(S(=O)(=O)N3CCC4(CC3)C[C@@H](NC[C@H](O)COc3cccc(S(=O)(=O)CCO)c3)CO4)c2)nc1` [Compound 127, (S)-1-(3-(2-hydroxyethylsulfonyl)phenoxy)-3-((R)-8-(3-(5-methylpyridin-2-yl)phenylsulfonyl)-1-oxa-8-azaspiro[4.5]decan-3-ylamino)propan-2-ol], 157 nM.
For `CCOc1ccc(-c2ccc(CN)cc2)cc1S(=O)(=O)N1CCC2(CC1)C[C@@H](NC[C@H](O)COc1cccc(S(=O)(=O)CC(N)=O)c1)CO2` [Compound 179, 2-(3-((S)-3-((R)-8-(4′-(aminomethyl)-4-ethoxybiphenyl-3-ylsulfonyl)-1-oxa-8-azaspiro[4.5]decan-3-ylamino)-2-hydroxypropoxy)phenylsulfonyl)acetamide], the IC50 stood at 49.1 nM.
`CC(C)(CN)c1ccc(-c2cccc(S(=O)(=O)N3CCC4(CC3)C[C@H](NC[C@H](O)COc3cccc(S(=O)(=O)C5(CO)CC5)c3)CO4)c2)cc1` [Compound 180, (S)-1-((S)-8-(4′-(1-amino-2-methylpropan-2-yl)biphenyl-3-ylsulfonyl)-1-oxa-8-azaspiro[4.5]decan-3-ylamino)-3-(3-(1-(hydroxymethyl)cyclopropylsulfonyl)phenoxy)propan-2-ol]: the IC50 came to 30.7 nM.
In the case of `CS(=O)(=O)c1cccc(OC[C@@H](O)CNC2COC3(CCN(S(=O)(=O)c4ccc5[nH]ccc5c4)CC3)C2)c1` (stereo partly drawn) [Compound 62, (2S)-1-(8-(1H-indol-5-ylsulfonyl)-1-oxa-8-azaspiro[4.5]decan-3-ylamino)-3-(3-(methylsulfonyl)phenoxy)propan-2-ol] it was 24.5 nM; in that of `CCn1cc(S(=O)(=O)N2CCC3(CC2)C[C@@H](NC[C@H](O)COc2cccc(S(=O)(=O)C4CC4)c2)CO3)c(=O)c2ccc(C)cc21` [Compound 318, 3-((R)-3-((S)-3-(3-(cyclopropylsulfonyl)phenoxy)-2-hydroxypropylamino)-1-oxa-8-azaspiro[4.5]decan-8-ylsulfonyl)-1-ethyl-7-methylquinolin-4(1H)-one], 95.2 nM; in that of `CCn1cc(S(=O)(=O)N2CCC3(CC2)C[C@@H](NC[C@H](O)COc2cccc(S(=O)(=O)C(C)C)c2)CO3)c(=O)c2ccccc21` [Compound 332, 1-ethyl-3-((R)-3-((S)-2-hydroxy-3-(3-(isopropylsulfonyl)phenoxy)propylamino)-1-oxa-8-azaspiro[4.5]decan-8-ylsulfonyl)quinolin-4(1H)-one], 42.3 nM.
For `COCCCS(=O)(=O)c1cccc(OC[C@@H](O)CN[C@H]2COC3(CCN(S(=O)(=O)c4ccc5ncccc5c4)CC3)C2)c1` [Compound 132, (S)-1-(3-(3-methoxypropylsulfonyl)phenoxy)-3-((R)-8-(quinolin-6-ylsulfonyl)-1-oxa-8-azaspiro[4.5]decan-3-ylamino)propan-2-ol], the IC50 worked out at 739 nM.
With `CCn1cc(S(=O)(=O)N2CCC3(CC2)C[C@@H](NC[C@H](O)COc2cccc(S(=O)(=O)C(F)(F)CO)c2)CO3)c(=O)c2ccccc21` [Compound 298, 3-((R)-3-((S)-3-(3-(1,1-difluoro-2-hydroxyethylsulfonyl)phenoxy)-2-hydroxypropylamino)-1-oxa-8-azaspiro[4.5]decan-8-ylsulfonyl)-1-ethylquinolin-4(1H)-one], the concentration for half-maximal inhibition (IC50) was 82.5 nM.
Turning to `Cc1cc(S(=O)(=O)N2CCC3(CC2)C[C@H](NC[C@H](O)COc2cccc(S(=O)(=O)C4(CO)CC4)c2)CO3)ccc1Br` [Compound 196, (S)-1-((S)-8-(4-bromo-3-methylphenylsulfonyl)-1-oxa-8-azaspiro[4.5]decan-3-ylamino)-3-(3-(1-(hydroxymethyl)cyclopropylsulfonyl)phenoxy)propan-2-ol], the IC50 turned out to be 34.6 nM.
On to `CC(C)CNCc1ccc(-c2cccc(S(=O)(=O)N3CCC4(CC3)C[C@@H](NC[C@H](O)COc3cccc(S(=O)(=O)C5(CO)CC5)c3)CO4)c2)cc1` [Compound 272, (S)-1-(3-(1-(hydroxymethyl)cyclopropylsulfonyl)phenoxy)-3-((R)-8-(4′-((isobutylamino)methyl)biphenyl-3-ylsulfonyl)-1-oxa-8-azaspiro[4.5]decan-3-ylamino)propan-2-ol], for which the IC50 came out at 566 nM.
As for `O=S(=O)(c1cccc(OC[C@@H](O)CNC2COC3(CCN(S(=O)(=O)c4ccc5ccccc5c4)CC3)C2)c1)C1CCC1` (stereo partly drawn) [Compound 18, (2S)-1-(3-(cyclobutylsulfonyl)phenoxy)-3-(8-(naphthalen-2-ylsulfonyl)-1-oxa-8-azaspiro[4.5]decan-3-ylamino)propan-2-ol], the IC50 turned out to be 48.9 nM.
Under `CC(C)S(=O)(=O)c1cccc(OC[C@@H](O)CNC2COC3(CCN(S(=O)(=O)c4ccc5ccccc5c4)CC3)C2)c1` (stereo partly drawn) [Compound 8, (2S)-1-(3-(isopropylsulfonyl)phenoxy)-3-(8-(naphthalen-2-ylsulfonyl)-1-oxa-8-azaspiro[4.5]decan-3-ylamino)propan-2-ol] stands 12.1 nM; under `O=S(=O)(CCO)c1cccc(OC[C@@H](O)CN[C@H]2COC3(CCN(S(=O)(=O)c4ccc5ncccc5c4)CC3)C2)c1` [Compound 93, (S)-1-(3-(2-hydroxyethylsulfonyl)phenoxy)-3-((R)-8-(quinolin-6-ylsulfonyl)-1-oxa-8-azaspiro[4.5]decan-3-ylamino)propan-2-ol], 75 nM.
With `O=S(=O)(c1cnc2c(c1)CCCO2)N1CCC2(CC1)C[C@@H](NC[C@H](O)COc1cccc(S(=O)(=O)C3(CO)CC3)c1)CO2` [Compound 284, (S)-1-((R)-8-(3,4-dihydro-2H-pyrano[2,3-b]pyridin-6-ylsulfonyl)-1-oxa-8-azaspiro[4.5]decan-3-ylamino)-3-(3-(1-(hydroxymethyl)cyclopropylsulfonyl)phenoxy)propan-2-ol], the IC50 came out at 106 nM.
Under `COCCNCc1ccc(-c2cccc(S(=O)(=O)N3CCC4(CC3)C[C@@H](NC[C@H](O)COc3cccc(S(=O)(=O)C5(CO)CC5)c3)CO4)c2)cc1` [Compound 267, (S)-1-(3-(1-(hydroxymethyl)cyclopropylsulfonyl)phenoxy)-3-((R)-8-(4′-((2-methoxyethylamino)methyl)biphenyl-3-ylsulfonyl)-1-oxa-8-azaspiro[4.5]decan-3-ylamino)propan-2-ol] stands 442 nM; under `O=S(=O)(c1cccc(OC[C@@H](O)CN[C@H]2COC3(CCN(S(=O)(=O)c4c[nH]c5ncccc45)CC3)C2)c1)C1CC1` [Compound 307, (S)-1-((R)-8-(1H-pyrrolo[2,3-b]pyridin-3-ylsulfonyl)-1-oxa-8-azaspiro[4.5]decan-3-ylamino)-3-(3-(cyclopropylsulfonyl)phenoxy)propan-2-ol], 59.2 nM; under `C[C@H]1CN(C)c2cc(S(=O)(=O)N3CCC4(CC3)C[C@@H](NC[C@H](O)COc3cccc(S(=O)(=O)CC(N)=O)c3)CO4)cnc2O1` [Compound 278, 2-(3-((S)-3-((R)-8-((S)-1,3-dimethyl-2,3-dihydro-1H-pyrido[2,3-b][1,4]oxazin-7-ylsulfonyl)-1-oxa-8-azaspiro[4.5]decan-3-ylamino)-2-hydroxypropoxy)phenylsulfonyl)acetamide], 586 nM.
On to `NC1(c2ccc(-c3cccc(S(=O)(=O)N4CCC5(CC4)C[C@@H](NC[C@H](O)COc4cccc(S(=O)(=O)C6(CO)CC6)c4)CO5)c3)cc2)CC1` [Compound 173, (S)-1-((R)-8-(4′-(1-aminocyclopropyl)biphenyl-3-ylsulfonyl)-1-oxa-8-azaspiro[4.5]decan-3-ylamino)-3-(3-(1-(hydroxymethyl)cyclopropylsulfonyl)phenoxy)propan-2-ol], for which the IC50 came to 31.2 nM.

(Values after US10927123B2, “Modulators of the beta-3 adrenergic receptor useful for the treatment or prevention of disorders related thereto” (Arena Pharmaceuticals, Inc., priority 2016, dated 2021).)
